Measurements published in article PMC10384982, “Investigation of Novel Benzoxazole-Oxadiazole Derivatives as Effective Anti-Alzheimer’s Agents: In Vitro and In Silico Approaches” (Pharmaceuticals, 2023).
Like-named read-outs stand apart in the source and are kept apart here.

Biological target: T1, butyrylcholinesterase (BuChE) (Equus caballus, UniProt P81908)
T1 construct: butyrylcholinesterase (E.C. 3.1.1.8) from equine serum; purchased Sigma–Aldrich (Steinheim, Germany); host or cells: equine serum
Assay: biochemical
Method: Acetylcholinesterase (E.C.3.1.1.7) (Type VI-S from electric eel and recombinant human enzyme) and butyrylcholinesterase (E.C. 3.1.1.8) from equine serum were purchased from Sigma–Aldrich (Steinheim, Germany). All of the materials used in the synthesis were purchased from Merck or Sigma–Aldrich (St. Louis, MO, USA) (Darmstadt, Germany). The ^1H NMR and ^13C NMR spectra in DMSO-d6 were recorded using a Bruker operating at 600 and 150 MHz digital FT-NMR spectrometer (Billerica, MA, USA, Bioscience, Bruker). The NMR spectra’s splitting patterns were recognized and categorized as doublet (d), singlet (s), double doublet (dd), multiplet (m) and triplet (t). In hertz, the coupling constants (J) are given (Hz). Mass spectra were captured on a Shimadzu LCMS-IT-TOF system (Kyoto, Japan) using the electrospray ionization (ESI) method. Using thin-layer chromatography and silica gel 60 F254 to test the purity of synthesized compounds (Darmstadt, Germany, Merck, KGaA).
The inhibition of AChE and BChE was determined using a method described earlier. Briefly, the stock solutions (1 mg/mL) of test analogues were prepared using DMSO. The working solutions (1–100 µg/mL) were prepared using serial dilutions (a serial dilution means a series of diluted solutions, e.g., 0.1 mg/mL, 0.2 mg/mL and so on; the solutions contained 5% DMSO and 95% water). The various concentrations of test compounds (10 µL) were pre-incubated with sodium phosphate buffer (0.1 M; pH 8.0; 150 µL) and AChE (0.1 U/mL; 20 µL) for 15 min at 25 °C. The reaction was initiated via the addition of DTNB (1 mM; 10 µL) and […] (1 mM; 10 µL). The mixture of reaction was mixed using a cyclomixer and incubated for 10 min at 25 °C. The absorbance was measured using a microplate reader at a 410 nm wavelength against the blank reading containing 10 µL DMSO instead of the test compound (the solution contained 5% DMSO and 95% water).

[1] = read-out: BuChE Inhibition IC50 ± SEM

T1 sequence (P81908 whole entry): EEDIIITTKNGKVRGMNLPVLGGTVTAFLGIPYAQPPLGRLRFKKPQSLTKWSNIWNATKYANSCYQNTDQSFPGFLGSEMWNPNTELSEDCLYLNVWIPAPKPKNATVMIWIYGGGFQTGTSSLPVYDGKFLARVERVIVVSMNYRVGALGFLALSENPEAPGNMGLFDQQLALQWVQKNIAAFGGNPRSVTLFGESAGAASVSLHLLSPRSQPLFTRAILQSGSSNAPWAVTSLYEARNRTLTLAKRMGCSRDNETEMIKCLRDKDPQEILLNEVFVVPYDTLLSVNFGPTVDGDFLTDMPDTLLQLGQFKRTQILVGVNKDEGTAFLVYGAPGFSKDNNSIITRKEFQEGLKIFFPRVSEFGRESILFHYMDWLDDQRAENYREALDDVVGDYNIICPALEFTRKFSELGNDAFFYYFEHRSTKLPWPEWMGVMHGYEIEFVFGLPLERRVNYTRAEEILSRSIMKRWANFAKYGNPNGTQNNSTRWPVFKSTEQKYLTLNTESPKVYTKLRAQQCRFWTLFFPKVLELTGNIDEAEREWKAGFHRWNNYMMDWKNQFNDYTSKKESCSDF

Compound O=[N+]([O-])c1ccc(-c2nnc(/N=C(/CSc3nc4ccccc4o3)c3cccc([N+](=O)[O-])c3)o2)cc1 [Compound 1, (E)-2-(Benzo[d]oxazol-2-ylthio)-1-(3-nitrophenyl)-N-(5-(4-nitrophenyl)-1,3,4-oxadiazol-2-yl)ethan-1-imine] has an IC50 of 8.9 ± 1.8 µM.
O=[N+]([O-])c1cccc(/C(CSc2nc3ccccc3o2)=N\c2nnc(-c3cccc([N+](=O)[O-])c3)o2)c1 [Compound 2, (E)-2-(Benzo[d]oxazol-2-ylthio)-1-(3-nitrophenyl)-N-(5-(3-nitrophenyl)-1,3,4-oxadiazol-2-yl)ethan-1-imine] gave an IC50 of 7.5 ± 1.2 µM.
In the case of O=[N+]([O-])c1cccc(/C(CSc2nc3ccccc3o2)=N\c2nnc(-c3ccc(Cl)cc3Cl)o2)c1 [Compound 3, (E)-2-(Benzo[d]oxazol-2-ylthio)-N-(5-(2,4-dichlorophenyl)-1,3,4-oxadiazol-2-yl)-1-(3-nitrophenyl)ethan-1-imine], the IC50 [1] is reported as 9.2 ± 1.9 µM.
Work on O=[N+]([O-])c1cccc(/C(CSc2nc3ccccc3o2)=N\c2nnc(-c3ccc(Cl)cc3)o2)c1 [Compound 4, (E)-2-(Benzo[d]oxazol-2-ylthio)-N-(5-(4-chlorophenyl)-1,3,4-oxadiazol-2-yl)-1-(3-nitrophenyl)ethan-1-imine] yielded an IC50 [1] of 11.9 ± 1.1 µM.
With CN(C)c1ccc(-c2nnc(/N=C(/CSc3nc4ccccc4o3)c3cccc([N+](=O)[O-])c3)o2)cc1 [Compound 5, (E)-4-(5-((2-(Benzo[d]oxazol-2-ylthio)-1-(3-nitrophenyl)ethylidene)amino)-1,3,4-oxadiazol-2-yl)-N,N-dimethylaniline] the IC50 [1] was 16.6 ± 2.5 µM.
Cc1ccc(/C(CSc2nc3ccccc3o2)=N\c2nnc(-c3ccc(OCc4ccccc4)cc3)o2)cc1 [Compound 6, (E)-2-(Benzo[d]oxazol-2-ylthio)-N-(5-(4-(benzyloxy)phenyl)-1,3,4-oxadiazol-2-yl)-1-(p-tolyl)ethan-1-imine] gave an IC50 [1] of 28.6 ± 3.8 µM.
Cc1ccc(/C(CSc2nc3ccccc3o2)=N\c2nnc(-c3cccc([N+](=O)[O-])c3)o2)cc1 [Compound 7, (E)-2-(Benzo[d]oxazol-2-ylthio)-N-(5-(3-nitrophenyl)-1,3,4-oxadiazol-2-yl)-1-(p-tolyl)ethan-1-imine] gave an IC50 [1] of 15.8 ± 3.1 µM.
For Cc1ccc(/C(CSc2nc3ccccc3o2)=N\c2nnc(-c3ccc(N(C)C)cc3)o2)cc1 [Compound 8, (E)-4-(5-((2-(Benzo[d]oxazol-2-ylthio)-1-(p-tolyl)ethylidene)amino)-1,3,4-oxadiazol-2-yl)-N,N-dimethylaniline], the IC50 [1] was 24.6 ± 3.8 µM.
Cc1ccc(/C(CSc2nc3ccccc3o2)=N\c2nnc(-c3ccc(Cl)cc3Cl)o2)cc1 [Compound 9, (E)-2-(Benzo[d]oxazol-2-ylthio)-N-(5-(2,4-dichlorophenyl)-1,3,4-oxadiazol-2-yl)-1-(p-tolyl)ethan-1-imine] gave an IC50 [1] of 14.8 ± 2.7 µM.
With Cc1ccc(/C(CSc2nc3ccccc3o2)=N\c2nnc(-c3ccc([N+](=O)[O-])cc3)o2)cc1 [Compound 10, (E)-2-(Benzo[d]oxazol-2-ylthio)-N-(5-(4-nitrophenyl)-1,3,4-oxadiazol-2-yl)-1-(p-tolyl)ethan-1-imine] the IC50 [1] was 18.5 ± 1.9 µM.
With Cc1ccc(/C(CSc2nc3ccccc3o2)=N\c2nnc(-c3ccc(Cl)cc3)o2)cc1 [Compound 11, (E)-2-(Benzo[d]oxazol-2-ylthio)-N-(5-(4-chlorophenyl)-1,3,4-oxadiazol-2-yl)-1-(p-tolyl)ethan-1-imine] the IC50 [1] was 12.3 ± 1.5 µM.
Compound Cc1ccc(/C(CSc2nc3ccccc3o2)=N\c2nnc(-c3ccc(C=O)cc3)o2)cc1 [Compound 12, (E)-4-(5-((2-(Benzo[d]oxazol-2-ylthio)-1-(p-tolyl)ethylidene)amino)-1,3,4-oxadiazol-2-yl)benzaldehyde] has an IC50 [1] of 28.7 ± 3.9 µM.
Compound Cc1cccc(/C(CSc2nc3ccccc3o2)=N\c2nnc(-c3ccc(OCc4ccccc4)cc3)o2)c1 [Compound 13, (E)-2-(Benzo[d]oxazol-2-ylthio)-N-(5-(4-(benzyloxy)phenyl)-1,3,4-oxadiazol-2-yl)-1-(m-tolyl)ethan-1-imine] has an IC50 [1] of 31.5 ± 4.9 µM.
Cc1ccc(/C(CSc2nc3ccccc3o2)=N\c2nnc(-c3ccc4ccccc4c3)o2)cc1 [Compound 14, (E)-2-(Benzo[d]oxazol-2-ylthio)-N-(5-(naphthalen-2-yl)-1,3,4-oxadiazol-2-yl)-1-(p-tolyl)ethan-1-imine] showed an IC50 [1] of 42.6 ± 6.1 µM.
Work on Clc1ccc(/C(CSc2nc3ccccc3o2)=N\c2nnc(-c3ccc(Cl)c(Cl)c3)o2)cc1Cl [Compound 15, (E)-2-(Benzo[d]oxazol-2-ylthio)-1-(3,4-dichlorophenyl)-N-(5-(3,4-dichlorophenyl)-1,3,4-oxadiazol-2-yl)ethan-1-imine] yielded an IC50 [1] of 7.2 ± 2.3 µM.
Work on O=[N+]([O-])c1cccc(-c2nnc(/N=C(/CSc3nc4ccccc4o3)c3ccc(Cl)c(Cl)c3)o2)c1 [Compound 16, (E)-2-(Benzo[d]oxazol-2-ylthio)-1-(3,4-dichlorophenyl)-N-(5-(3-nitrophenyl)-1,3,4-oxadiazol-2-yl)ethan-1-imine] yielded an IC50 [1] of 7.6 ± 2.1 µM.
For Clc1ccc(-c2nnc(/N=C(/CSc3nc4ccccc4o3)c3ccc(Cl)c(Cl)c3)o2)cc1 [Compound 17, (E)-2-(Benzo[d]oxazol-2-ylthio)-N-(5-(4-chlorophenyl)-1,3,4-oxadiazol-2-yl)-1-(3,4-dichlorophenyl)ethan-1-imine], the IC50 [1] was 13.3 ± 3.2 µM.
CN(C)c1ccc(-c2nnc(/N=C(/CSc3nc4ccccc4o3)c3ccc(Cl)c(Cl)c3)o2)cc1 [Compound 18, (E)-4-(5-((2-(Benzo[d]oxazol-2-ylthio)-1-(3,4-dichlorophenyl)ethylidene)amino)-1,3,4-oxadiazol-2-yl)-N,N-dimethylaniline] gave an IC50 [1] of 18.3 ± 3.2 µM.
Work on O=[N+]([O-])c1ccc(-c2nnc(/N=C(/CSc3nc4ccccc4o3)c3ccc(Cl)c(Cl)c3)o2)cc1 [Compound 19, (E)-2-(Benzo[d]oxazol-2-ylthio)-1-(3,4-dichlorophenyl)-N-(5-(4-nitrophenyl)-1,3,4-oxadiazol-2-yl)ethan-1-imine] yielded an IC50 [1] of 9.8 ± 2.3 µM.
